Reference: publication PMC7574619, “Engineering of NADPH Supply Boosts Photosynthesis-Driven Biotransformations” (ACS Catalysis, 2020)

Target: T1, YqjM (Bacillus subtilis, UniProt P54550)
T1 construct: gene namA; purified YqjM flavoenzyme
T1 sequence (P54550 2-338): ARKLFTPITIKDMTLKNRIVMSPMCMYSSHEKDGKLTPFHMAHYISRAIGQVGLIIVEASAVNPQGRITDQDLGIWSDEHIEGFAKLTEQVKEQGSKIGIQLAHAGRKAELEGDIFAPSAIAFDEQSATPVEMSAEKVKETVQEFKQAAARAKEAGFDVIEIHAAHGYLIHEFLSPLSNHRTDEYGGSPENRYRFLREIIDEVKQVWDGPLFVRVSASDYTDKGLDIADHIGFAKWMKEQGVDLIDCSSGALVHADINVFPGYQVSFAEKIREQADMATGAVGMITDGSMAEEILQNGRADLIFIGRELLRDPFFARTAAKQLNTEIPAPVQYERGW
Test: stopped-flow, flavin reduction at […] nm, anaerobic
Assay type: biochemical
Conditions: Tris-HCl 50 mM, pH 7.5, 25 °C; 25 μM YqjM; reductive half reaction

Kd [µM]	Structure (SMILES)
140 ± 24.5	NC(=O)C1=CN([C@@H]2O[C@H](COP(=O)(O)OP(=O)(O)OC[C@H]3O[C@@H](n4cnc5c(N)ncnc54)[C@H](O)[C@@H]3O)[C@@H](O)[C@H]2O)C=CC1 [NADH]
39.8 ± 7.1	NC(=O)C1=CN([C@@H]2O[C@H](COP(=O)(O)OP(=O)(O)OC[C@H]3O[C@@H](n4cnc5c(N)ncnc54)[C@H](OP(=O)(O)O)[C@@H]3O)[C@@H](O)[C@H]2O)C=CC1 [NADPH]
